Reference: US10183917B2, “Tricyclic compounds and uses thereof in medicine” (Sunshine Lake Pharma Co., Ltd., priority 2015, dated 2019)

Experiments:
[1] = molecular target: nuclear receptor FXR recombinant protein (Homo sapiens (Human), UniProt Q96RI1); experiment: TR-FRET Farnesoid X Receptor Coactivator Assay; format: biochemical; conditions: Fluorescein-SRC2-2, Tb anti-GST antibody, 1 h room temperature
Description: Example 36: TR-FRET Farnesoid X Receptor Coactivator Assay
Purchasing invitrogen PV4833 kits.
First, the required amount of the compound was weighed and dissolved in 100% DMSO at the maximum concentration of 3000 μM. The solution at the maximum concentration was diluted by 3-fold serial dilution in DMSO to get 10 concentrations;
Second, the above prepared solutions of different concentrations were diluted to 100-fold with a buffer supplied with the kit, followed by mixing and then 10 μL of the diluted solution was added to a 384 well plate;
Third, nuclear receptor FXR recombinant protein was diluted with a buffer to give a concentration of 4×, and 5 μL of the diluent was added to the 384 well plate of second step;
Fourth, Fluorescein-SRC2-2 and Tb anti-GST antibody were diluted with a buffer to give a concentration of 4× respectively. Then two reagents were mixed together, and 10 μL of the mixture was added to the 384 well plate of third step;
Finally, the solution of the 384 well above was mixed uniformly by centrifuging, and then incubated at room temperature for 1 h. Then the TR-FRET Endpoint was used for measuring the solution at wavelengths of 520 nm, 495 nm and 337 nm. EC50 values were calculated according to the measured value of ER=520 nm/495 nm.

[2] = Pharmacokinetics test in SD rats (iv and po); format: in vivo
Description: Example 37: Pharmacokinetics Test
Experimental animals: six healthy adult male SD rats (purchased from Hunan Slack King of Laboratory Animal Co. Ltd.) were divided into two groups, three rats in each group, and the two grops were given intravenous injection and oral administration respectively.
Drug preparation: a quantity of a compound of the present invention was weighed, and 5% DMSO, 10% Kolliphor HS15 and 85% saline (0.9%) were added to give target concentrations of the compound solution.
Administration and sample collection: animals were fasting for 12 h until administered, eating 3 h after the administration. Hind legs of SD rats of one group were given intravenous injection (IV, 1 mg/kg) and SD rats of the other group were given oral administration (PO, 5 mg/kg) respectively. Then blood was collected in the rat tail vein at the time point 0, 0.083, 0.25, 0.5, 1, 2, 4, 6, 8, 24 h respectively, and the blood volume was about 200-400 μL/time points. After the collection of whole blood at each time point, the colleted blood was set in K2EDTA anticoagulant tube, and the tube was placed in the incubator with ice packs. All samples were centrifuged for 5 min at 4° C. at 4600 r/min within 15 min. Plasma was separated and colleted. The concentrations of different compounds in the plasma of the rats after adminstration were measured using LC/MS/MS method, and the pharmacokinetic parameters were calculated according to the curve of the drug concentration-time.
Pharmacokinetic properties of the compounds of the present invention were tested by the experiment above, and the pharmacokinetic parameters were shown in Table 3.

[3] = male, SD, rat, in vivo, iv, 1 mg/kg
[4] = male, SD, rat, in vivo, po, 5 mg/kg

nuclear receptor FXR recombinant protein, sequence (Q96RI1 258-486, other chains not shown): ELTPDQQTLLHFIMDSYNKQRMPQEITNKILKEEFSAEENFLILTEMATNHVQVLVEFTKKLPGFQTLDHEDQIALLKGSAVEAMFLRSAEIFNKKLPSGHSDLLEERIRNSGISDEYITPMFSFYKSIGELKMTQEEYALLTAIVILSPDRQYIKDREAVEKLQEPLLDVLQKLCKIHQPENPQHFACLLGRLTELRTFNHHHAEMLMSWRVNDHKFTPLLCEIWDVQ

O=C(O)c1ccc2c(c1)Oc1ccc(OCc3c(-c4c(Cl)cccc4Cl)noc3C3CC3)cc1CC2 [Example 1, 8-((5-cyclopropyl-3-(2,6-dichlorophenyl)isoxazol-4-yl)methoxy)-10,11-dihydrodibenzo[b,f]oxepine-3-carboxylic acid]
EC50 [1]: 18 nM

O=C(O)c1ccc2c(c1)C(=O)c1ccc(OCc3c(-c4c(Cl)cccc4Cl)noc3C3CC3)cc1CC2 [Example 2, 8-((5-cyclopropyl-3-(2,6-dichlorophenyl)isoxazol-4-yl)methoxy)-5-oxo-10,11-dihydro-5H-dibenzo[a,d][7]annulene-3-carboxylic acid]
EC50 [1]: 4 nM | AUCINF ([2]; male SD rats, iv 1 mg/kg): 1210 ng·h/mL | AUClast ([2]; male SD rats, iv 1 mg/kg): 1180 ng·h/mL | Cl ([2]; male SD rats, iv 1 mg/kg): 14 mL/min/kg | Cmax ([2]; male SD rats, iv 1 mg/kg): 2560 ng/mL | MRTINF ([2]; male SD rats, iv 1 mg/kg): 63 min | T1/2 ([2]; male SD rats, iv 1 mg/kg): 109 min | Tmax ([2]; male SD rats, iv 1 mg/kg): 4.8 min | Vss ([2]; male SD rats, iv 1 mg/kg): 0.86 L/kg | AUCINF ([2]; male SD rats, po 5 mg/kg): 11300 ng·h/mL | AUClast ([2]; male SD rats, po 5 mg/kg): 11200 ng·h/mL | Cmax ([2]; male SD rats, po 5 mg/kg): 9970 ng/mL | MRTINF ([2]; male SD rats, po 5 mg/kg): 141 min | T1/2 ([2]; male SD rats, po 5 mg/kg): 250 min | Tmax ([2]; male SD rats, po 5 mg/kg): 19.8 min | F ([2]; male SD rats, po 5 mg/kg vs iv 1 mg/kg): 189.7%

O=C(O)c1ccc2c(c1)Oc1ccc(OCc3c(-c4c(Cl)cccc4Cl)noc3C3CC3)nc1CC2 [Example 3, 2-((5-cyclopropyl-3-(2,6-dichlorophenyl)isoxazol-4-yl)methoxy)-10,11-dihydrobenzo[6,7]oxepino[3,2-b]pyridine-7-carboxylic acid]
EC50 [1]: 37 nM

O=C(O)c1ccc2c(c1)Oc1cnc(OCc3c(-c4c(Cl)cccc4Cl)noc3C3CC3)cc1CC2 [Example 4, 3-((5-cyclopropyl-3-(2,6-dichlorophenyl)isoxazol-4-yl)methoxy)-5,6-dihydrobenzo[6,7]oxepino[2,3-c]pyridine-9-carboxylic acid]
EC50 [1]: 46 nM | F ([2]; male, SD, rat, in vivo): 44.7% | AUC(0-inf) [2, 3]: 878 ng·h/mL | AUC(0-t) [2, 3]: 877 ng·h/mL | Cmax [2, 3]: 1900 ng/mL | MRT inf [2, 3]: 24 min | Tmax [2, 3]: 4.8 min | Vd [2, 3]: 0.45 L/kg | clearance [2, 3]: 19 mL/min/kg | half-life [2, 3]: 30 min | AUC(0-inf) [2, 4]: 1980 ng·h/mL | AUC(0-t) [2, 4]: 1960 ng·h/mL | Cmax [2, 4]: 1800 ng/mL | MRT inf [2, 4]: 82.2 min | Tmax [2, 4]: 19.8 min | half-life [2, 4]: 294 min

O=C(O)c1ccc2c(c1)Oc1ccc(OCc3c(-c4c(Cl)cccc4Cl)noc3C3CC3)cc1S(=O)(=O)C2 [Example 5, 8-((5-cyclopropyl-3-(2,6-dichlorophenyl)isoxazol-4-yl)methoxy)-11H-dibenzo[b,f][1,4]oxathiepine-3-carboxylic acid-10,10-dioxide]
EC50 [1]: 6 nM | F ([2]; male, SD, rat, in vivo): 62.6% | AUC(0-inf) [2, 3]: 941 ng·h/mL | AUC(0-t) [2, 3]: 926 ng·h/mL | Cmax [2, 3]: 2420 ng/mL | MRT inf [2, 3]: 45.6 min | Tmax [2, 3]: 4.8 min | Vd [2, 3]: 0.82 L/kg | clearance [2, 3]: 18 mL/min/kg | half-life [2, 3]: 93.6 min | AUC(0-inf) [2, 4]: 3350 ng·h/mL | AUC(0-t) [2, 4]: 2900 ng·h/mL | Cmax [2, 4]: 1300 ng/mL | MRT inf [2, 4]: 514 min | Tmax [2, 4]: 19.8 min | half-life [2, 4]: 702 min

O=C(O)c1ccc2c(c1)Oc1ccc(OCc3c(-c4c(Cl)cccc4Cl)noc3C3CC3)cc1SC2 [Example 6, 8-((5-cyclopropyl-3-(2,6-dichlorophenyl)isoxazol-4-yl)methoxy)-11H-dibenzo [b,f][1,4]oxathiepine-3-carboxylic acid]
EC50 [1]: 55 nM

O=C(O)c1ccc2c(c1)Oc1ccc(OCc3c(-c4c(Cl)cccc4Cl)noc3C3CC3)cc1[S+]([O-])C2 (stereo not drawn) [Example 7, 8-((5-cyclopropyl-3-(2,6-dichlorophenyl)isoxazol-4-yl)methoxy)-11H-dibenzo [b,f][1,4]oxathiepine-3-carboxylic acid-10-oxide]
EC50 [1]: 15 nM

O=C(O)c1ccc2c(c1)C1(CC1)c1ccc(OCc3c(-c4c(Cl)cccc4Cl)noc3C3CC3)cc1CC2 [Example 9, 2′-((5-cyclopropyl-3-(2,6-dichlorophenyl)isoxazol-4-yl)methoxy)-10′,11′-dihydrospiro[cyclopropane-1,5′-dibenzo[a,d][7]annulene]-7′-carboxylic acid]
EC50 [1]: 38 nM

O=C(O)c1ccc2c(c1)S(=O)(=O)c1ccc(OCc3c(-c4c(Cl)cccc4Cl)noc3C3CC3)cc1CC2 [Example 11, 8-((5-cyclopropyl-3-(2,6-dichlorophenyl)isoxazol-4-yl)methoxy)-10,11-dihydrodibenzo[b,f]thiepine-3-carboxylic acid-5,5-dioxide]
EC50 [1]: 56 nM

O=C(O)c1ccc2c(c1)CCc1ccc(OCc3c(-c4c(Cl)cccc4Cl)noc3C3CC3)cc1O2 [Example 15, 7-((5-cyclopropyl-3-(2,6-dichlorophenyl)isoxazol-4-yl)methoxy)-10,11-dihydrodibenzo[b,f]oxepine-2-carboxylic acid]
EC50 [1]: 35 nM

CC(C)c1cnn(-c2c(Cl)cccc2Cl)c1COc1ccc2c(n1)CCc1ccc(C(=O)O)cc1O2 [Example 17, 2-((1-(2,6-dichlorophenyl)-4-isopropyl-1H-pyrazol-5-yl)methoxy)-10,11-dihydrobenzo[6,7]oxepino[3,2-b]pyridine-7-carboxylic acid]
EC50 [1]: 23 nM | F ([2]; male, SD, rat, in vivo): 67.7% | AUC(0-inf) [2, 3]: 1840 ng·h/mL | AUC(0-t) [2, 3]: 1840 ng·h/mL | Cmax [2, 3]: 4280 ng/mL | MRT inf [2, 3]: 19.2 min | Tmax [2, 3]: 4.8 min | Vd [2, 3]: 0.89 L/kg | clearance [2, 3]: 50 mL/min/kg | half-life [2, 3]: 25.8 min | AUC(0-inf) [2, 4]: 6240 ng·h/mL | AUC(0-t) [2, 4]: 6230 ng·h/mL | Cmax [2, 4]: 5960 ng/mL | MRT inf [2, 4]: 50.4 min | Tmax [2, 4]: 19.8 min | half-life [2, 4]: 47.4 min

CS(=O)(=O)NC(=O)c1ccc2c(c1)Oc1ccc(OCc3c(-c4c(Cl)cccc4Cl)noc3C3CC3)nc1CC2 [Example 19, 2-((5-cyclopropyl-3-(2,6-dichlorophenyl)isoxazol-4-yl)methoxy)-N-(methylsulfonyl)-10,11-dihydrobenzo[6,7]oxepino[3,2-b]pyridine-7-carboxamide]
EC50 [1]: 6 nM

CC(C)c1nnn(-c2c(Cl)cccc2Cl)c1COc1ccc2c(c1)CCc1ccc(C(=O)O)cc1C2=O [Example 27, 8-((1-(2,6-dichlorophenyl)-4-isopropyl-1H-1,2,3-triazol-5-yl)methoxy)-5-oxo-10,11-dihydro-5H-dibenzo[a,d][7]annulene-3-carboxylic acid]
EC50 [1]: 12 nM

O=C(NCCS(=O)(=O)O)c1ccc2c(c1)Oc1ccc(OCc3c(-c4c(Cl)cccc4Cl)noc3C3CC3)nc1CC2 [Example 29, 2-(2-((5-cyclopropyl-3-(2,6-dichlorophenyl)isoxazol-4-yl)methoxy)-10,11-dihydrobenzo[6,7]oxepino[3,2-b]pyridine-7-carboxamido)ethanesulfonic acid]
EC50 [1]: 11 nM

O=C(O)c1ccc2c(c1)Oc1ccc(OCc3c(-c4c(Cl)cccc4Cl)noc3C3CC3)nc1C=C2 [Example 30, 2-((5-cyclopropyl-3-(2,6-dichlorophenyl)isoxazol-4-yl)methoxy)benzo[6,7]oxepino[3,2-b]pyridine-7-carboxylic acid]
EC50 [1]: 27 nM

O=C(O)c1ccc2c(c1)Oc1ccc(OCc3c(-c4c(Cl)cccc4Cl)noc3C3CC3)nc1CCC2 [Example 31, 3-((5-cyclopropyl-3-(2,6-dichlorophenyl)isoxazol-4-yl)methoxy)-6,7-dihydro-5H-benzo[7,8]oxocino[3,2-b]pyridine-10-carboxylic acid]
EC50 [1]: 56 nM

CS(=O)(=O)c1ccc2c(c1)Oc1ccc(OCc3c(-c4c(Cl)cccc4Cl)noc3C3CC3)nc1CC2 [Example 32, 2-((5-cyclopropyl-3-(2,6-dichlorophenyl)isoxazol-4-yl)methoxy)-7-(methylsulfonyl)-10,11-dihydrobenzo[6,7]oxepino[3,2-b]pyridine]
EC50 [1]: 54 nM

O=C(O)c1cnc2c(c1)Oc1cnc(OCc3c(-c4c(Cl)cccc4Cl)noc3C3CC3)cc1CC2 [Example 33, 8-((5-cyclopropyl-3-(2,6-dichlorophenyl)isoxazol-4-yl)methoxy)-10,11-dihydrooxepino[3,2-b:7,6-c′]dipyridine-3-carboxylic acid]
EC50 [1]: 18 nM
